Test results taken from paper PMC3260207, “Site-Directed Mutations and the Polymorphic Variant Ala160Thr in the Human Thromboxane Receptor Uncover a Structural Role for Transmembrane Helix 4” (PLoS ONE, 2012).
Residue numbers refer to the chain shown, from its start.

Key:
Assay in all cases: Intracellular calcium mobilization (Fluo-4NW) in transfected HEK293T cells
Type in all cases: cell-based
TP F107A mutant = molecular target: T1, TP F107A mutant (Homo sapiens, UniProt P21731, F107A); conditions: read-out: EC50 of agonist U46619 (calcium mobilized), transiently transfected HEK293T cells, mean ± S.E
T1 construct: expressed in transfected cells; HEK293T (calcium assays)
T1 sequence (P21731 1-343 F107A): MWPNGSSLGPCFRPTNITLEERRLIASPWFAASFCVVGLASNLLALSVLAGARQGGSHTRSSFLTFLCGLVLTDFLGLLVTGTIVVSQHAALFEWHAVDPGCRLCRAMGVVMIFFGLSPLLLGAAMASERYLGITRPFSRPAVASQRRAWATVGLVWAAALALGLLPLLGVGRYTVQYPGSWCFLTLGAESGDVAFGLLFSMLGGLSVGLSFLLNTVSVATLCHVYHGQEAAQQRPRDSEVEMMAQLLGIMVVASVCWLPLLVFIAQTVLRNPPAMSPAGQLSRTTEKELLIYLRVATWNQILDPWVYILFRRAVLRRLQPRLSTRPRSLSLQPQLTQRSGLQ
Protocol: (§1) Amino acid substitutions were introduced into the synthetic TPα gene carried by the expression vector pMT4 as described previously, [29]. DNA sequences of all the mutated genes were verified by automated DNA sequencing. To minimize variations in transfection efficiency, the total amount transfected DNA was kept constant in all cases at 1 µg of DNA per 7×10^5 cells. The wild type TP or mutant genes were expressed in COS-1 cells using a DEAE-dextran based transient transfection method, [29], and in HEK293T cells using lipofectamine 2000 (Invitrogen). Except unless specified, the membranes prepared from COS-1 cells were used for radioligand binding assays and immunoblots. For intracellular calcium determination assays and immunofluorescence imaging, HEK293T cells were used. For transient transfections of HEK293T cells using the plasmid pMT4, lipofectamine 2000 (Invitrogen) mediated transfection was used as described by the manufacturer. Membranes were prepared using Buffers A and B and as described previously, [29]. The protein concentration in the resuspended membrane pellet was determined using a modified DC protein assay kit from Bio-Rad Laboratories (Hercules, CA).
(§2) Changes in intracellular calcium were measured by using the fluorescent calcium sensitive dye Fluo-4NW (Invitrogen). After 6–8 hours of transient transfection of HEK293T cells using lipofectamine 2000, 100,000 viable cells were plated into each well of a 96-well tissue culture treated BD-falcon optilux plates. Cells mock transfected with vector pMT4 alone were used as a negative control. Following 24 hours of incubation at 37°C, the media was removed and cells were incubated with the dye Fluo-4NW (Invitrogen) containing 77 µg/ml of probenecid for 1 hour, as recommended by the manufacturer. […] Dose–response curves were generated and EC50 values calculated by nonlinear regression analysis using PRISM software version 5.0 (GraphPad Software Inc, San Diego, CA) after subtracting the responses of mock-transfected cells stimulated with same concentrations of agonists.

TP G164V mutant = molecular target: T2, TP G164V mutant (Homo sapiens, UniProt P21731, G164V); conditions: read-out: EC50 of agonist U46619 (calcium mobilized), transiently transfected HEK293T cells, mean ± S.E
T2 construct: expressed in transfected cells; HEK293T (calcium assays)
T2 sequence (P21731 1-343 G164V): T1 sequence (P21731 1-343 F107A) with A107F, G164V
Protocol: as §1, §2

[1] = molecular target: T3, TP G164V/V110A double mutant (Homo sapiens, UniProt P21731, G164V/V110A); conditions: response could be restored upon stimulation with elevated levels of U46619
T3 construct: expressed in transfected cells; transient, pMT4
T3 sequence (P21731 1-343 V110A/G164V): T1 sequence (P21731 1-343 F107A) with A107F, V110A, G164V
Protocol: as §1, §2

SMILES: CCCCC[C@H](O)/C=C/[C@@H]1[C@@H](C/C=C\CCCC(=O)O)[C@H]2CO[C@@H]1C2 [U46619]
- EC50 (TP F107A mutant): 2.5 ± 0.7 nM
- EC50 (TP G164V mutant): 38 ± 2.1 nM
- Calcium response to U46619 [1]: reduced calcium response
